Test results: patent US11382328B2, “Rapid drug discovery methods for pathogen inactivation” (priority 2019, dated 2022)

System: E. coli strain W3110
Assay: Synergy assays: Biolog chemical sensitivity panels with Group IB metal, coefficient of drug interaction (CDI) from relative growth
Type: cell-based
Conditions: for CDI (coefficient of drug interaction), copper mixed with biocide: Copper (mM) section; for CDI (coefficient of drug interaction): Gold section of Table 5; for CDI (coefficient of drug interaction), silver + biocide: E. coli
[1] = 1st of 3 copper concentrations (value not shown), 4th of four biocide concentrations
[2] = 2nd of 3 copper concentrations (value not shown), 4th of four biocide concentrations
[3] = 3rd of 3 copper concentrations (value not shown), 4th of four biocide concentrations
[4] = first of three gold concentrations (μM, value not given), biocide concentration 4 of 4
[5] = second of three gold concentrations (μM, value not given), biocide concentration 3 of 4
[6] = second of three gold concentrations (μM, value not given), biocide concentration 4 of 4
[7] = third of three gold concentrations (μM, value not given), biocide concentration 3 of 4
[8] = third of three gold concentrations (μM, value not given), biocide concentration 4 of 4
[9] = Silver 0.5 μM, 2nd of four biocide concentrations
[10] = Silver 0.5 μM, 4th of four biocide concentrations
[11] = Silver 1.0 μM, 2nd of four biocide concentrations
[12] = Silver 1.0 μM, 4th of four biocide concentrations
[13] = Silver 5.0 μM, 2nd of four biocide concentrations
[14] = Silver 5.0 μM, 4th of four biocide concentrations

## CCCCCCCCCCCC[N+](C)(C)C.[Br-] [Dodecyltrimethyl NH4^+ Br^−]
1st of 3 copper concentrations (value not shown), 1st of four biocide concentrations
  CDI (coefficient of drug interaction), copper mixed with biocide: 1.20
1st of 3 copper concentrations (value not shown), 3rd of four biocide concentrations
  CDI (coefficient of drug interaction), copper mixed with biocide: 1.51
[1]
  CDI (coefficient of drug interaction), copper mixed with biocide: Tox
2nd of 3 copper concentrations (value not shown), 1st of four biocide concentrations
  CDI (coefficient of drug interaction), copper mixed with biocide: 1.02
2nd of 3 copper concentrations (value not shown), 2nd of four biocide concentrations
  CDI (coefficient of drug interaction), copper mixed with biocide: 1.04
2nd of 3 copper concentrations (value not shown), 3rd of four biocide concentrations
  CDI (coefficient of drug interaction), copper mixed with biocide: Tox
[2]
  CDI (coefficient of drug interaction), copper mixed with biocide: Tox
3rd of 3 copper concentrations (value not shown), 1st of four biocide concentrations
  CDI (coefficient of drug interaction), copper mixed with biocide: 0.77
3rd of 3 copper concentrations (value not shown), 2nd of four biocide concentrations
  CDI (coefficient of drug interaction), copper mixed with biocide: 0.73
3rd of 3 copper concentrations (value not shown), 3rd of four biocide concentrations
  CDI (coefficient of drug interaction), copper mixed with biocide: 1.63
[3]
  CDI (coefficient of drug interaction), copper mixed with biocide: Tox
First of three gold concentrations (μM, value not given), biocide concentration 1 of 4
  CDI (coefficient of drug interaction): 0.96
First of three gold concentrations (μM, value not given), biocide concentration 2 of 4
  CDI (coefficient of drug interaction): 1.00
First of three gold concentrations (μM, value not given), biocide concentration 3 of 4
  CDI (coefficient of drug interaction): 0.95
[4]
  CDI (coefficient of drug interaction): Tox
Second of three gold concentrations (μM, value not given), biocide concentration 1 of 4
  CDI (coefficient of drug interaction): 0.96
Second of three gold concentrations (μM, value not given), biocide concentration 2 of 4
  CDI (coefficient of drug interaction): 0.94
[5]
  CDI (coefficient of drug interaction): 1.11
[6]
  CDI (coefficient of drug interaction): Tox
Third of three gold concentrations (μM, value not given), biocide concentration 1 of 4
  CDI (coefficient of drug interaction): 1.02
Third of three gold concentrations (μM, value not given), biocide concentration 2 of 4
  CDI (coefficient of drug interaction): 1.14
[7]
  CDI (coefficient of drug interaction): 1.05
[8]
  CDI (coefficient of drug interaction): Tox
Silver 0.5 μM, 1st of four biocide concentrations
  CDI (coefficient of drug interaction), silver + biocide: 0.63
[9]
  CDI (coefficient of drug interaction), silver + biocide: 0.91
Silver 0.5 μM, 3rd of four biocide concentrations
  CDI (coefficient of drug interaction), silver + biocide: Tox
[10]
  CDI (coefficient of drug interaction), silver + biocide: Tox
Silver 1.0 μM, 1st of four biocide concentrations
  CDI (coefficient of drug interaction), silver + biocide: 1.00
[11]
  CDI (coefficient of drug interaction), silver + biocide: 1.04
Silver 1.0 μM, 3rd of four biocide concentrations
  CDI (coefficient of drug interaction), silver + biocide: Tox
[12]
  CDI (coefficient of drug interaction), silver + biocide: Tox
Silver 5.0 μM, 1st of four biocide concentrations
  CDI (coefficient of drug interaction), silver + biocide: 0.59
[13]
  CDI (coefficient of drug interaction), silver + biocide: 0.47
Silver 5.0 μM, 3rd of four biocide concentrations
  CDI (coefficient of drug interaction), silver + biocide: Tox
[14]
  CDI (coefficient of drug interaction), silver + biocide: Tox

## OC(CCN1CCCCC1)(c1ccccc1)c1ccccc1 [pridinol]
[1]
  CDI (coefficient of drug interaction), copper mixed with biocide: Tox
[2]
  CDI (coefficient of drug interaction), copper mixed with biocide: Tox
[3]
  CDI (coefficient of drug interaction), copper mixed with biocide: Tox
[4]
  CDI (coefficient of drug interaction): Tox
[5]
  CDI (coefficient of drug interaction): Tox
[6]
  CDI (coefficient of drug interaction): Tox
[7]
  CDI (coefficient of drug interaction): Tox
[8]
  CDI (coefficient of drug interaction): Tox
[9]
  CDI (coefficient of drug interaction), silver + biocide: Tox
[10]
  CDI (coefficient of drug interaction), silver + biocide: Tox
[11]
  CDI (coefficient of drug interaction), silver + biocide: Tox
[12]
  CDI (coefficient of drug interaction), silver + biocide: Tox
[13]
  CDI (coefficient of drug interaction), silver + biocide: Tox
[14]
  CDI (coefficient of drug interaction), silver + biocide: Tox
